What was measured:
RAGE/S100B = biological target: T1, RAGE/S100B (Homo sapiens, UniProt Q15109); test: Solid phase binding assay, RAGE to S100b calgranulin; settings: Table 2
T1 construct: purchased R&D Systems (Minneapolis, Minn.)
Method: (§1) Solid phase binding assays. Solid phase binding assays were used to study the ability of SAGEs to inhibit RAGE binding to its ligands. For studies of the effect of SAGEs on RAGE binding to its ligands, polyvinyl 96-well plates were coated with 5 μg/well of specific ligand (CML-BSA, HMGB-I or S100b calgranulin). Plates were incubated overnight at 4° C. and washed thrice with PBS-0.05% Tween-20 (PBST). Separately, RAGE-Fc chimera (100 μL containing 0.5 μg/ml in PBST-0.1% BSA) was incubated with an equal volume of serially diluted SAGEs (0.001 to 1,000 μg/ml in PBST-BSA) overnight at 4° C. The following day, 50 μL of RAGE-SAGE mix was transferred to each respective ligand-coated well and incubated at 37° C. for 2 h. Wells were then washed four times with PBST. To detect bound RAGE, 50 μL of anti-RAGE antibody (0.5 μg/ml) was added to each well, the mixture was incubated for 1 h at room temperature, and wells were washed again four times with PBST. Horse-radish peroxidase conjugated secondary antibody (1:10,000 antibody dilution in PBST; 50 μL per well) was added, wells were incubated for 1 h at room temperature, and then washed once with PBST. A colorimetric reaction was initiated by addition of 50 μL of tetramethyl benzidine chromogen (TMB single solution chromogen) and terminated after 15 min by addition of 50 μL of 1 N HCl. Absorbance at 450 nm was read using an automated microplate reader.

RAGE/HMGB1 = biological target: T2, RAGE/HMGB1 (Homo sapiens, UniProt Q15109); test: Solid phase binding assay, RAGE to HMGB-1 (amphoterin); settings: Table 2
T2 construct: purchased R&D Systems (Minneapolis, Minn.)
T2 sequence (Q15109 with tags, fused parts or gaps limits assumed): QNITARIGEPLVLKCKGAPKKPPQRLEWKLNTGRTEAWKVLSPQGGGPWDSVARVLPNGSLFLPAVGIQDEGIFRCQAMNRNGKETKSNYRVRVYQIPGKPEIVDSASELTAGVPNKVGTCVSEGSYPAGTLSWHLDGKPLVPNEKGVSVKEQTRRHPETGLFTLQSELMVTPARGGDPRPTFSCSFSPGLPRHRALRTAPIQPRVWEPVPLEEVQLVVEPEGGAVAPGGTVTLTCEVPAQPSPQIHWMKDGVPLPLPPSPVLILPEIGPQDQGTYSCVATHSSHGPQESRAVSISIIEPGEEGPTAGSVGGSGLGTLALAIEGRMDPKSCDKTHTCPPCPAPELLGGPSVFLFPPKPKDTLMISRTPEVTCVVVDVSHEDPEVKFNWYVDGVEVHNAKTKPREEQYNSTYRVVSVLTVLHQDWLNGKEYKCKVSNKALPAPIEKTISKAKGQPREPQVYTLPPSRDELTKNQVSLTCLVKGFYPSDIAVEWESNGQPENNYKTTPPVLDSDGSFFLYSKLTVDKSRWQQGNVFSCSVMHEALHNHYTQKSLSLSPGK
Method: as §1

RAGE/Mac-1 = biological target: T3, RAGE/Mac-1 (Homo sapiens, UniProt Q15109); test: U937 monocyte binding to RAGE (cell binding assay); settings: Table 2; U937 binding to RAGE-Fc
T3 construct: purchased R&D Systems (Minneapolis, Minn.)
T3 sequence (Q15109 with tags, fused parts or gaps limits assumed): as above
Method: (§2) Cell Binding Assays. The effect of SAGEs on binding of U937 monocytes to P-selectin or RAGE was studied in high-bind micro plates coated with 8 μg/ml protein A ([…]) in 0.2 M carbonate-bicarbonate buffer (pH 9.4). Plates were washed with phosphate buffered saline containing 1% BSA (PBS-BSA), and P-selectin-Fc or RAGE-Fc chimera (50 μL containing 1 μg) was added to each well and incubated for 2 h at room temperature or overnight at 4° C., respectively. Following incubation, wells were washed twice with PBS-BSA. […] As a negative control, 50 μL of 10 mM EDTA was added to select wells to prevent cell binding through sequestration of calcium. At the end of the incubation period, 50 μL of U937 cells (10^5 cells/well, calcein-labeled according to manufacturer's instructions) were added to each well and plates were incubated an additional 30 min at room temperature. The wells were then washed thrice with PBS, and bound cells were lysed by addition of 100 μL of Tris-TritonX-100 containing buffer. Fluorescence was measured on a microplate reader using excitation of 494 nm and emission of 517 nm.

RAGE/CML-BSA = biological target: T4, RAGE/CML-BSA (Homo sapiens, UniProt Q15109); test: Solid phase binding assay, RAGE to CML-BSA; settings: Table 2
T4 construct: purchased R&D Systems (Minneapolis, Minn.)
T4 sequence (Q15109 with tags, fused parts or gaps limits assumed): as above
Method: as §1

Xa = test: Anti-Xa anticoagulant activity; type: biochemical
P-Selectin/PSGL = biological target: T5, P-Selectin/PSGL (Homo sapiens, UniProt P16109); test: U937 monocyte binding to P-selectin (cell binding assay); settings: Table 2; U937 binding to P-selectin-Fc
T5 construct: purchased R&D Systems (Minneapolis, Minn.)
T5 sequence (P16109 with tags, fused parts or gaps limits assumed): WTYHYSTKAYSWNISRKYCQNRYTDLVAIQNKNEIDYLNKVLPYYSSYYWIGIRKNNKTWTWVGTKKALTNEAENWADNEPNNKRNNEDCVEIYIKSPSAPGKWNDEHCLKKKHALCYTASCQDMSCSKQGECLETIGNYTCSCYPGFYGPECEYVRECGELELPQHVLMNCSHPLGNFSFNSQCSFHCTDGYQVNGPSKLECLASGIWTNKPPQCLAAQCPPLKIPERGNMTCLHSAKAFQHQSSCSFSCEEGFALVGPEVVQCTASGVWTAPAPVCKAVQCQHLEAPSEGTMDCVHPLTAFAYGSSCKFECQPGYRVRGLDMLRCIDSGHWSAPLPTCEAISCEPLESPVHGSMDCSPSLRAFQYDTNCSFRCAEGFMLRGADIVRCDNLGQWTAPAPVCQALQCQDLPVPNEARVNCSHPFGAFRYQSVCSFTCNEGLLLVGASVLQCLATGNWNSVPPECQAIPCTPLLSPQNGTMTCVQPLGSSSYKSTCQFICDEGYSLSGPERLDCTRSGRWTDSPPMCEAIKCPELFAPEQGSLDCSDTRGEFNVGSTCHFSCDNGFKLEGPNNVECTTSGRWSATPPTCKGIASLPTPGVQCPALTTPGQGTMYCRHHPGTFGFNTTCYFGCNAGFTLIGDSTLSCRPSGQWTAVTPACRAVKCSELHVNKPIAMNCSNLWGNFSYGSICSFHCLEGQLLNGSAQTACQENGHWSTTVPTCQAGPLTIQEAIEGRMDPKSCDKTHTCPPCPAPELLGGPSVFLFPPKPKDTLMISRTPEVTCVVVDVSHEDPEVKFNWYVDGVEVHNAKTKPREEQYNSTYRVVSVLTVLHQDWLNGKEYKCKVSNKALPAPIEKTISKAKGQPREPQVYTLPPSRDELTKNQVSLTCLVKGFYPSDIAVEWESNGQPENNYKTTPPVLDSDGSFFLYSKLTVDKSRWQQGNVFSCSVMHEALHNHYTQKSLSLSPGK
Method: as §2

IIa = test: Anti-IIa anticoagulant activity; type: biochemical
human leukocyte elastase = biological target: T6, human leukocyte elastase (Homo sapiens, UniProt P08246); test: Human leukocyte elastase activity assay, chromogenic substrate; type: biochemical; settings: Table 2
T6 sequence (P08246 30-267): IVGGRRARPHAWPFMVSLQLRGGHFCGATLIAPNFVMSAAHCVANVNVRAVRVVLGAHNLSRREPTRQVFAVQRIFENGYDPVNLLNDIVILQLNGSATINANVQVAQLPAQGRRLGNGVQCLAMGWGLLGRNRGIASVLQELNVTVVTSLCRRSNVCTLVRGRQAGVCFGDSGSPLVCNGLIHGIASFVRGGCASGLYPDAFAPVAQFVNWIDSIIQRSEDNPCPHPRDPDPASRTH
From the text: Enzymatic assays. […] Nat Biotech 26:669-675, 2008).

[1] = biological target: T7, Hageman factor (Factor XII) (Homo sapiens, UniProt P00748); test: Activation of Hageman factor (Factor XII) in pooled human plasma, amidolytic activity; settings: Table 2, table line reads IC50 values
T7 sequence (P00748 20-615): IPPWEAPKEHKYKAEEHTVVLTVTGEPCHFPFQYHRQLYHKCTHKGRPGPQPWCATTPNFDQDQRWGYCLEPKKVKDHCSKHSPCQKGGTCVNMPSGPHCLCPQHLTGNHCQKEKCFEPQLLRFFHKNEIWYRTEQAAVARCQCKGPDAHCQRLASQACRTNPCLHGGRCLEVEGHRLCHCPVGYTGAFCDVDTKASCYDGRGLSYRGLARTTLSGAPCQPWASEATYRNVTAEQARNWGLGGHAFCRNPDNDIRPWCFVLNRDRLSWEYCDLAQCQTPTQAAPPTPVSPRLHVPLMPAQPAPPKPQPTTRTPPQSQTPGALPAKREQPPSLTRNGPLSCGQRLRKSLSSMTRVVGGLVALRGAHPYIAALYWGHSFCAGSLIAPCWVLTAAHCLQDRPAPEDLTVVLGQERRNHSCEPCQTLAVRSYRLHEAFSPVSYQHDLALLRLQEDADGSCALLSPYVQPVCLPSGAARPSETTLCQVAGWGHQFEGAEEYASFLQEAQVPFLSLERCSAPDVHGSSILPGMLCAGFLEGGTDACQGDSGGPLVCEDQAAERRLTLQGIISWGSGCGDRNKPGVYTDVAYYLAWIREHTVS
Method: Enzymatic assays. […] Pooled human plasma (5 μl) was incubated with 100 μl of SAHA (0.1 to 1000 μg/ml) in 0.05 M HEPES containing Triton X-100 for 5 min at 5° C.
SAGEs were screened for their ability to stimulate intrinsic coagulation (activation of Hageman factor). Pooled human plasma was incubated with heparin or low molecular weight (Lmw) sulfated and fluoroalkylated HAs (Lmw-OSFHA-1, Lmw-OSFHA-2) and amidolytic activity was determined using the substrate D-cyclohydrotyrosyl-Gly-Arg-p-NA.

T1 sequence (Q15109 with tags, fused parts or gaps limits assumed): as the sequence (Q15109 with tags, fused parts or gaps limits assumed) above

Heparin [reference compound]
RAGE/S100B (RAGE/S100B): 1.29 µg/mL
RAGE/HMGB1 (RAGE/HMGB1): 0.04 µg/mL
RAGE/Mac-1 (RAGE/Mac-1): 0.11 µg/mL
RAGE/CML-BSA (RAGE/CML-BSA): 0.39 µg/mL
anti-Xa anticoagulant activity (Xa): 150 U/mg
P-Selectin/PSGL (P-Selectin/PSGL): 0.3 µg/mL
anti-IIa anticoagulant activity (IIa): 150 U/mg
Leukocyte Elastase (human leukocyte elastase): 0.21 µg/mL
Hageman Factor [1]: 0.4 µg/mL

Reference: US8399430B2, “Alkylated semi synthetic glycosaminoglycosan ethers, and methods for making and using thereof” (University of Utah Research Foundation, priority 2008, dated 2013)
